Assay results taken from article PMC2607018, “Iodine Atoms: A New Molecular Feature for the Design of Potent Transthyretin Fibrillogenesis Inhibitors” (PLoS ONE, 2009).
Where two headings read alike, the source gives them in different places.

What was measured:
[1] = molecular target: TTRwt (Homo sapiens, UniProt P02766); assay: Tetramer dissociation in 6M urea monitored by far-UV circular dichroism; assay type: biochemical; conditions: TTRwt 3.6 µM, inhibitor 7.2 µM, 25 °C
Text: (§1) The stabilizing effect of iodine atoms on the tetrameric form of both TTRwt and TTRY78F has been further evaluted on urea induced dissociation experiments by comparing the performance of iododiflunisal versus diflunisal. Thus, after allowing maximum stabilization of the tetrameric forms of both TTR wild type and Y78F mutant proteins by formation of TTR/inhibitor complexes of (1:2) stoichiometry, measures of circular dichroism in the far-UV of changes in the secondary structure of TTR were recorded as a function of time in 6M urea solutions. It has been assumed that the rate of tetramer dissociation is irreversibly associated to fast monomer unfolding when employing urea concentrations exceeding those that may enable monomer refolding.
(§2) It is known that the dissociation of the tetrameric form of TTRwt takes an average of 42 h and the resulting monomers quickly unfold 500.000 times faster. Therefore the rate of dissociation can be estimated by lining it to unfolding which is irreversible in 6M urea. Thus, owing that the tetramer dissociation is the rate limiting step for fibrilogenesis and assuming the kinetic stabilizing mechanism of inhibition, good inhibitors should slow tetramer dissociation.
(§3) Although slow tetramer dissociation is not detectable by far-UV CD spectroscopy, this technique is very much suitable at monitoring the much faster unfolding step.The CD spectra of TTR corresponds to a typical β-sheet reach protein with a Cotton effect centered at 210 nm and a shoulder at 217 nm. This band gradually looses intensity as protein denaturation advances, therefore meaningful changes in the β-sheet content of the protein are normally recorded in the region of 210–250 nm. Below this region (190–210 nm) other interesting structural changes are masked by the high concentrations of urea required for denaturation. Results are here presented in unfolded fraction units which are calculated from each spectra assuming than at time zero the elipticity recorded corresponds to the fully folded protein while at 200 h this parameter agrees with a totally unfolded state.
(§4) Both proteins were incubated in buffered solutions of 6M urea in the presence and absence of 1:2 ratios of protein to inhibitor and far-UV CD spectra ([…]) were intermitently recorded for a period of 200 hours. […]
(§5) Protein stock solutions of wtTTR and TTRY78F of 1 mg/ml of protein in 50 mM of sodium phosphate buffer, 1mM EDTA, pH 7.0 were also prepared from mother solutions of both proteins containing 4 mg/mL (72.7 µM) of wtTTR and 3 mg/mL (55.5 µM) of TTRY78F that were determined by spectrophotometrical methods. […] The samples were incubated over a period of 200 hours at 25 °C and far-UV CD spectra (210-250 nm) were periodically recorded in a JASCO 600 instrument. […]

[2] = molecular target: T1, TTRY78F (Homo sapiens, UniProt P02766, Y98F); assay: as above; assay type: biochemical; conditions: TTRY78F 3.6 µM, inhibitor 7.2 µM, 25 °C
Text: as §1, §2, §3, §4, §5

[3] = molecular target: T1, TTRY78F; set-up: method as in PMID 15080795; conditions: 1:2 proportion of TTRY78F/inhibitor; cited from earlier work
[4] = molecular target: T2, thyroid hormone receptor beta (Homo sapiens, UniProt P10828); assay: In vitro binding test to thyroid hormone receptors; conditions: data not shown
T2 sequence (P10828 1-461): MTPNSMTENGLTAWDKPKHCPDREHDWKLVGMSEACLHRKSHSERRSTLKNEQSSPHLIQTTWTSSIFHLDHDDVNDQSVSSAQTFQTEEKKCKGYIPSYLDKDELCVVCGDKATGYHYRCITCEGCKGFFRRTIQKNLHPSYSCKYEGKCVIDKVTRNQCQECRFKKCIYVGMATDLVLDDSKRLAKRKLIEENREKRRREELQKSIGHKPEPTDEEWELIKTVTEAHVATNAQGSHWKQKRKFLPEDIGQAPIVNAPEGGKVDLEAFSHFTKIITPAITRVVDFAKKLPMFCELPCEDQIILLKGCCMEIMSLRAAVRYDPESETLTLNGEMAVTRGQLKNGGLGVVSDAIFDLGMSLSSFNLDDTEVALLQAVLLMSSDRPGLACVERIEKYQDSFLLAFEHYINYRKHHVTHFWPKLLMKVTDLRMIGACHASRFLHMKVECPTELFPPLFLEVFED
Experimental: (§6) To gain further insight on the therapeutic potential of these iodinated TTR fibrillogenesis inhibitors, in vitro binding tests of idodiflunisal to thyroid hormone receptors alfa and beta were carried out (data not shown). […] This has been further confirmed by preclinical animal studies using a TTRV30M transgenic mice strain receiving 2.8 mg of iododiflunisal per day during 3 months. […] However, further preclinical tests are needed to validate these compounds as potential drugs for TTR related amyloidosis.

[5] = system: thyroid hormone receptor alfa; assay: In vitro binding test to thyroid hormone receptors; conditions: data not shown
Experimental: as §6

[6] = system: natural TTR tetramers occurring in blood plasma of control and FAP patients; set-up: method as in PMID 15080795; conditions: cited from earlier work
[7] = system: TTRV30M transgenic mice strain; assay: Preclinical animal study, 3 months; assay type: in vivo; conditions: 2.8 mg per day during 3 months
Experimental: as §6

[8] = molecular target: TTR variant Y78F (Homo sapiens, UniProt P02766, Y98F); assay: Kinetic turbidity assay of acid induced fibril formation; assay type: biochemical
Text: Two different parameters can be derived from this kinetic test. The IC50 value is the inhibitor concentration at which the initial rate of fibril formation is half than that in the absence of inhibitor. In turn, RA (%) can be defined as the percent reduction of fibril formation rate at high inhibitor concentration relative to the rate at zero concentration of tested compound.
An in vitro turbidimetric test in a high troughput mode was used to assess the fibrillogenesis inhibition potency of the compounds of the library. The mutant protein TTRY78F was incubated with various concentrations of test compounds in 96 well microplates. After lowering the pH of the solutions to 4.2, the incubation was extended for 1.5 h while recording the absorbance at 340 nm at 1 min intervals. […] (Figure S1).
The mutant Y78F TTR protein (0.4 mg.mL^-1) was incubated for 30 min (pH 7.6, 37 °C) with 6 concentrations of test compounds ranging from 0 to 40 µM in 96-well microplates.
IC50% value is the inhibitor concentration at which the initial rate of fibril formation is half of that in the absence of inhibitor. RA(%) is the percentage of reduction in fibril formation rate induced by a given concentration of test compound relative to the rate of experiments at zero concentration of test compound.

[9] = molecular target: T3, recombinant wild type TTR (Homo sapiens, UniProt P02766); assay: T4 competition assay (125I-T4, gel filtration); assay type: binding; conditions: for affinity for TTR relative to T4, in words: from T4 displacement
T3 construct: made in house; host or cells: E. coli
Text: To evaluate the relative binding affinity of the compounds for TTR an already described procedure was followed.

[10] = inhibitor concentration at which the initial rate of fibril formation is half, Y78F TTR 0.4 mg/mL, pH 4.2, 37 °C, read-out: Kinetic turbidity assay IC50

O=C(O)c1cc(-c2ccc(F)cc2F)ccc1O [1a, 2’,4’-difluoro-4-hydroxy-[1,1’]-biphenyl-3-carboxylic acid, reference compound]
protein denaturation (unfolding) after 200 h [1]: 60%
protein denaturation (tetramer dissociation) after 200 h [2]: 80%
aggregates seen by TEM [3]: still allow amyloid precipitates to occur

O=C(O)c1cc(-c2ccc(F)cc2F)cc(I)c1O [1b, 2’,4’-difluoro-4-hydroxy-5-iodo-[1,1’]-biphenyl-3-carboxylic acid]
protein denaturation (unfolding) after 200 h [1]: 30%
protein denaturation (tetramer dissociation) after 200 h [2]: 30%
binding constants [4]: almost negligible
binding constants [5]: almost negligible
stabilizing effect on TTR tetramers [6]: more potent stabilizing effect
aggregates seen by TEM [3]: completely prevented
metabolic disfunctions [7]: did not show significant metabolic disfunctions

O=C(O)CCNC(=O)c1cc(-c2ccc(F)cc2F)cc(I)c1O [22b, N-[2’-,4’-difluoro-4-hydroxy-5-iodo-[1,1’]-biphenyl-3-carbonyl]-β-alanine]
fibrillogenesis inhibitory potency, in words [8]: very potent inhibitor
affinity for TTR relative to T4, in words [9]: equal affinity for TTR than T4
T4 Displacement EC50(T4)/EC50(I) ([9]; wild type TTR 30 nM, 125I-T4, test compounds 0-10 µM, relative to cold T4): 0.95

CCOC(=O)[C@H](C)NC(=O)c1cc(-c2ccc(F)cc2F)cc(I)c1O [11b, N-[2’,4’-difluoro-4-hydroxy-5-iodo-[1,1’]-biphenyl-3-carbonyl]-L-alanine ethyl ester]
IC50 [8, 10]: 5.7 µM
affinity for TTR relative to T4, in words [9]: higher affinity values for TTR than T4

COC(=O)C(CC(=O)OC(C)(C)C)NC(=O)c1cc(-c2ccc(F)cc2F)cc(I)c1O [19b, N-[2’,4’-difluoro-4-hydroxy-5-iodo-[1,1’]-biphenyl-3-carbonyl]-L-aspartic α-methyl ester and β-tert-butyl ester]
IC50 [8, 10]: 5.8 µM
affinity for TTR relative to T4, in words [9]: higher affinity values for TTR than T4

CC(C)CC(NC(=O)c1cc(-c2ccc(F)cc2F)ccc1O)C(=O)OC(C)(C)C [13a, N-[2’,4’-difluoro-4-hydroxy-[1,1’]-biphenyl-3-carbony]-L-leucine tert-butyl ester]
IC50 [8, 10]: > 50 µM

O=C(O)CCNC(=O)c1cc(-c2ccc(F)cc2F)ccc1O [22a]
IC50 [8, 10]: > 50 µM

CC(C(=O)O)c1ccc(-c2ccccc2)c(F)c1 (centres unmarked) [Flurbiprofen, reference compound]
IC50 ([8]; fibrillogenesis inhibition assay, effect of iodination, read-out: Inhibitory efficiency, rough screening (Figure 3, measure not given)): > 100 µM
